Results taken from article PMC5891061, “Electrophysiological mechanisms of vandetanib-induced cardiotoxicity: Comparison of action potentials in rabbit Purkinje fibers and pluripotent stem cell-derived cardiomyocytes” (PLoS ONE, 2018).

Experiments:
[1] = biological target: T1, KCNQ1/KCNE1 (IKs) (Homo sapiens, UniProt P51787); experiment: Whole-cell patch clamp, IKs in KCNQ1/KCNE1-cotransfected HEK293 cells; assay type: cell-based; settings: for IKs current: HEK293
T1 construct: expressed in transfected cells; host or cells: HEK293
Excerpt: For various aspects of cardiac ion channel study, human embryonic kidney (HEK293; ATCC, Manassas, VA, USA) cells were transiently transfected using lipofectAmin2000 (Gibco BRL, New York, NY, USA) according to the manufacturer’s instructions. The hERG (human ether-ago-go-related gene corresponding to IKr), KCNQ1/KCNE1 (the gene corresponding to IKs), KCNJ2 (the gene corresponding to IK1) or SCN5A (the gene corresponding to INa) cDNA was co-transfected with green fluorescence protein, the surface marker protein, to allow assessment of the transfection efficiency. For the calcium current, enzymatically isolated single rat ventricular myocytes were used. Briefly, the hearts were rapidly excised from anaesthetized Sprague–Dawley rats (250–350 g) and perfused via the aorta on a Langendorff apparatus with an oxygenated normal Tyrode (NT) solution for 5 min. To clear the blood, then perfused with Ca^2+-free normal Tyrode solution for 3 min. Next, the heart was perfused with enzyme solution containing 0.6 mg/mL collagenase (Worthington Biomedical Corp., Lakewood, NJ, USA) for 30–40 min. Finally, this enzyme-containing solution was washed out for 5 min. with a high-K^+ and low-Cl^-) Kraft-Bruhe solution. Following the isolation procedure, the left ventricle was dissected out and agitated mechanically with a fire-polished Pasteur pipette in Kraft-Bruhe solution to obtain single myocytes. The isolated myocytes were stored at 4°C until use.
The external solution for recording the IhERG, IKs and INa channel currents was NT solution. The internal solution for IhERG contained the following (in mM): 130 KCl, 5 EGTA, 10 HEPES, 1 MgCl2, 5 Mg-ATP (pH 7.25 with KOH), and for IKs in the KCNQ1/KCNE1-cotransfected HEK293 cells, 150 KCl, 5 EGTA, 10 HEPES, 2 MgCl2, 1 CaCl2 and 5 Na2-ATP (pH adjusted 7.25 with KOH). […] The calcium current was measured in naïve rat ventricular myocytes, cells were superfused with an external solution that consisted of (in mM): 137 choline-Cl, 5 CsCl, 0.5 MgCl2, 2 4-AP, 10 HEPES, 10 glucose and 1.8 CaCl2 (pH 7.4 with NaOH), whereas the intracellular solution used to fill the pipette had the following ionic solution (in mM): 20 CsCl, 100 Cs-aspartate, 10 EGTA, 10 HEPES, 20 TEA-Cl, 5 Mg-ATP (pH 7.25 with KOH). […]
pCLAMP (Axon Instruments, Foster City, CA, USA), Origin 8 (OriginLab Corp, Northampton, MA, USA), and Excel (Microsoft, Redmond, WA, USA) were used for data acquisition and analysis. The concentration–response relationships for drug-induced blockage were calculated using SigmaPlot (Systat Software, San Jose, CA, USA). […] Statistical significance was determined using the Student’s t-test and one-way ANOVA with post hoc testing using Dunnett’s method; p < 0.05 was considered to indicate statistical significance. […]

[2] = biological target: T2, IhERG in hiPSC-CMs (Homo sapiens, UniProt Q12809); experiment: IhERG current in hiPSC-CMs (voltage clamp); assay type: cell-based; design: unit not given here
T2 construct: host or cells: hiPSC-CMs (iCell Cardiomyocytes)
T2 sequence (Q12809 whole entry): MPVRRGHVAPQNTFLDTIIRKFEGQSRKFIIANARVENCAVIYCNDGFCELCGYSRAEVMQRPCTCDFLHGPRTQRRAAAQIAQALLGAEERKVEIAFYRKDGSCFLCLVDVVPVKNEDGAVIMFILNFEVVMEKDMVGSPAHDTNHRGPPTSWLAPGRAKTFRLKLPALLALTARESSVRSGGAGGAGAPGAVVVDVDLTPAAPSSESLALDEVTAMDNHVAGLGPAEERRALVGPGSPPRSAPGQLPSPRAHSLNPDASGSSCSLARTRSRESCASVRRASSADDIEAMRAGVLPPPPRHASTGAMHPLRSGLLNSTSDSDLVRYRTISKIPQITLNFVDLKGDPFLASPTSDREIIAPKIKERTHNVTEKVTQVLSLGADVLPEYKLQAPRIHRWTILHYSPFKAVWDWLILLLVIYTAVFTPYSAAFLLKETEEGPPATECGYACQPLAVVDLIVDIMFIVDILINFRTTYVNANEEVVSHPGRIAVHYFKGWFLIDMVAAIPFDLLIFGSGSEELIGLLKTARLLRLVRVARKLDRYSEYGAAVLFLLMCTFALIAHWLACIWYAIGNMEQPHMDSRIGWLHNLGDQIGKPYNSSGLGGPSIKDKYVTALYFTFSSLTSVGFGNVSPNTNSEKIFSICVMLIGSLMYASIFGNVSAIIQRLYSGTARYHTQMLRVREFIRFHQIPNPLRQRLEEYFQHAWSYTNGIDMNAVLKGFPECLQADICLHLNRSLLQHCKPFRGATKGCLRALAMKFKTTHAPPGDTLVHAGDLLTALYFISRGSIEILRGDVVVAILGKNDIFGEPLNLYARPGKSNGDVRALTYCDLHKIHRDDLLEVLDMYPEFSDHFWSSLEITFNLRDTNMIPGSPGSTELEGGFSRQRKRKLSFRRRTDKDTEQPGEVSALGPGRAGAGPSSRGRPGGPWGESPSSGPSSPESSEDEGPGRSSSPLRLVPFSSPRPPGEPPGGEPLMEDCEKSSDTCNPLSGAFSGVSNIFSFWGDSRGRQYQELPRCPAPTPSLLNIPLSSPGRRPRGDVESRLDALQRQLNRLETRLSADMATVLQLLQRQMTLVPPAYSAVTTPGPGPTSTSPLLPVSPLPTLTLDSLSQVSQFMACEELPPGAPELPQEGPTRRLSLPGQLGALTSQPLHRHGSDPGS
Method: The hiPSC-CMs from human fibroblast cell lines (iCell Cardiomyocytes; Cellular Dynamics International, Madison, WI, USA) were purchased and cultured for single-cell electrophysiological recordings. Frozen vials of hiPSC-CMs were thawed in a water bath maintained at 37°C and mixed with ice-cold plating medium (iCell Cardiomyocyte Plating Medium, glucose-free). The cells were transferred to four-well culture plates containing 0.1% gelatin-coated glass coverslips and then maintained in a culture incubator at 37°C in an atmosphere of 93% air and 7% CO2. After 2 days of culture, the plating medium was replaced with culture medium (iCell Cardiomyocyte Maintenance Medium, glucose-free), which was then changed every 2 days. The hiPSC-CMs were cultured for 4 weeks and used at 7 to 28 days post-thaw for electrophysiological analysis. […] The internal solution contained (in mM) 120 K-Asp, 20 KCl, 5 NaCl, 2 CaCl2, 10 HEPES, 5 EGTA, and 5 Mg-ATP (pH 7.25). We recorded typical APs in hiPSC-CMs in the current-clamp mode. The spontaneous beating activity or paced firing of single hiPSC-CMs were recorded, and only hiPSC-CMs that could beat stably were included in the analysis. Following stabilization of the AP waveforms, the average of six recorded APs for each test concentration was analyzed.
pCLAMP (Axon Instruments, Foster City, CA, USA), Origin 8 (OriginLab Corp, Northampton, MA, USA), and Excel (Microsoft, Redmond, WA, USA) were used for data acquisition and analysis. The concentration–response relationships for drug-induced blockage were calculated using SigmaPlot (Systat Software, San Jose, CA, USA). […] Data are presented as the means ± SEM, and n represents the number of experimental replicates. Statistical significance was determined using the Student’s t-test and one-way ANOVA with post hoc testing using Dunnett’s method; p < 0.05 was considered to indicate statistical significance.

[3] = tested on: rabbit Purkinje fibers; experiment: Action potential recording in rabbit Purkinje fiber; settings: for APA / APD50 / APD90 / RMP / Vmax: 1 Hz pacing
Method: This study was conducted in facilities approved by the AAALAC (Association for Assessment and Accreditation of Laboratory Animal Care) International. All procedures were approved by our Institutional Animal Care and Use Committee (IACUC). Female New Zealand white rabbits (1.8–2 kg) were anaesthetized with pentobarbital sodium (45 mg/kg intravenously). Their hearts were rapidly removed and placed in normal Tyrode’s solution: 143 NaCl; 5.4 KCl; 5.0 HEPES (4-(2-hydroxyethyl)-1-piperazineethanesulfonic acid); 0.33 H2PO4; 0.5 MgCl2; 16.6 Glucose; 1.8 CaCl2; pH 7.4 aerated with O2 gas. Purkinje fibers (PFs) were excised from the left ventricle and stored in a chamber superfused with normal Tyrode’s solution at 37.0 ± 0.5 °C and 5 mL/min. Action potentials (APs) were recorded using the conventional intracellular recording technique. The tissue preparation was driven by electrical pulses (duration = 2 ms, frequencies of 1 Hz). The signals of APs were amplified with Geneclamp 500B (Molecular Devices Corporation, Sunnyvale, CA, USA) and recorded by Notocord systems (Croissy-sur-Seine, France) for off-line analysis.

## COc1cc2c(Nc3ccc(Br)cc3F)ncnc2cc1OCC1CCN(C)CC1 [Vandetanib]
[1]; 10 μM
  IKs current: 840.7 ± 180.3
[1]; 30 μM
  IKs current: 406.5 ± 113.7
[1]; 100 μM
  IKs current: 108.2 ± 8.3
[1]; HEK293 cells
  IC50: 28 ± 1.81 µM
[2]; 0.1 μM
  IhERG current: 196.0 ± 3.2
[2]; 0.3 μM
  IhERG current: 164.9 ± 9.4
[2]; 1 μM
  IhERG current: 92.8 ± 11.2
[2]; 3 μM
  IhERG current: 20.4 ± 4.4
[3]; 0.3 μM
  APA: 118.0 ± 1.9 mV
  APD50: 218.9 ± 20.3 ms
  APD90: 300.1 ± 21.0 ms
  RMP: -82.2 ± 0.4 mV
  Vmax: 380.9 ± 82.9 V/s
[3]; 1 μM
  APD90 increase compared to vehicle control: 31%
  APA: 118.1 ± 2.1 mV
  APD90: 354.0 ± 25.2 ms
  RMP: -82.2 ± 1.2 mV
  Vmax: 379.9 ± 91.1 V/s
[3]; 3 μM
  APD50 increase compared to vehicle control: 38.9%
  APD90 increase compared to vehicle control: 55.6%
  APA: 118.1 ± 1.5 mV
  APD50: 289.6 ± 21.4 ms
  APD90: 417.1 ± 20.6 ms
  RMP: -82.3 ± 2.5 mV
  Vmax: 382.8 ± 64.6 V/s
[3]; concentrations up to 3 μM
  Effect on RMP, APA, and Vmax: did not significantly alter
